Source: ChEMBL document CHEMBL4346694, “Identification of Three-Way DNA Junction Ligands through Screening of Chemical Libraries and Validation by Complementary in Vitro Assays” (J Med Chem, 2019)
Activity calls are given as the source filed them. The calls are words filed in the database; no cut-off is given here.

Legend:
[1] = Binding affinity to FAM-TWJ-TAMRA DNA (unknown origin) assessed as change in melting temperature at 1 uM after 30 mins in presence of 10 uM ds26 DNA by FRET assay
[2] = Binding affinity to FAM-TWJ-TAMRA DNA (unknown origin) assessed as change in melting temperature at 1 uM after 30 mins by FRET assay
[3] = Binding affinity to FAM-TWJ-S1/TWJ-S2/TAMRA-TWJ-S3 DNA (unknown origin) assessed as normalized FAM intensity at 1 uM measured at 5 mins interval for 1 hr by fluorescence assay relative to control
[4] = Binding affinity to FAM-TWJ-TAMRA DNA (unknown origin) assessed as change in melting temperature at 1 uM after 30 mins in presence of 3 uM ds26 DNA by FRET assay
[5] = Binding affinity to FAM-TWJ-S1 DNA (unknown origin) assessed as normalized FAM intensity at 1 uM measured at 5 mins interval for 1 hr by fluorescence assay relative to control
[6] = Selectivity ratio of compound effect for binding affinity to FAM-TWJ-TAMRA DNA (unknown origin) assessed as change in melting temperature at 1 uM in absence of 10 uM ds26 DNA to compound effect for binding affinity to FAM-TWJ-TAMRA DNA (unknown origin) assessed as change in melting temperature at 1 uM in presence of 10 uM ds26 DNA
[7] = Binding affinity to TWJ-S1/TWJ-S2/TWJ-S3 DNA (unknown origin) assessed as compound-DNA complex formation at 30 uM measured after 1 hr by sybrgold-staining based PAGE analysis
[8] = Binding affinity to FAM-TWJ-S1/TWJ-S2/TWJ-S3 DNA (unknown origin) assessed as compound-DNA complex formation at 12 uM measured after 1 hr in presence of ds12 DNA by sybrgold-staining based PAGE analysis
[9] = Binding affinity to ds17 DNA measured after 24 hrs by equilibrium dialysis method
[10] = Selectivity index, ratio of LD50 for human hTERT-BJ cells to LD50 for human MCF7 cells; format: toxicity; details: hTERT-BJ cells versus MCF7 cells, read-out: Selectivity Index
[11] = Binding affinity to ds17 DNA (unknown origin) assessed as equilibrium binding constant at 1:2 DNA to compound ratio after 1 hr by ESI-MS analysis
[12] = Binding affinity to TWJ DNA (unknown origin) measured after 24 hrs by equilibrium dialysis method
[13] = test system: MDA-MB-231; assay: Antiproliferative activity against human MDA-MB-231 cells assessed as reduction in cell viability measured after 72 hrs by SRB assay; format: functional; details: MDA-MB-231, 72 h, read-out: LD50 (the source's name)
[14] = test system: MCF7; assay: Induction of DNA damage in human MCF7 cells assessed as gammaH2AX accumulation at 10 times antiproliferative LD50 measured after 72 hrs by DAPI staining-based confocal laser scanning microscopic analysis; format: functional, cell-based
[15] = Selectivity ratio of K for TWJ DNA (unknown origin) to K for ds17 DNA (unknown origin)
[16] = Binding affinity to ds17 DNA (unknown origin) assessed as equilibrium binding constant at 1:3 DNA to compound ratio after 1 hr by ESI-MS analysis
[17] = Selectivity ratio of Kapp for TWJ DNA (unknown origin) to Kapp for ds17 DNA by equilibrium dialysis method (unknown origin)
[18] = Binding affinity to TWJ DNA (unknown origin) assessed as equilibrium binding constant at 1:2 DNA to compound ratio after 1 hr by ESI-MS analysis
[19] = Selectivity index, ratio of LD50 for human hTERT-BJ cells to LD50 for human MDA-MB-231 cells; format: toxicity; details: hTERT-BJ cells versus MDA-MB-231 cells, read-out: Selectivity Index
[20] = test system: MCF7; assay: Antiproliferative activity against human MCF7 cells assessed as reduction in cell viability measured after 72 hrs by SRB assay; format: functional; details: MCF7, 72 h, read-out: LD50 (the source's name)
[21] = Cytotoxicity against human hTERT-BJ cells assessed as reduction in cell viability measured after 72 hrs by SRB assay; format: cell-based; details: read-out: LD50

| Structure (SMILES) | ΔTm [2] | Ratio [3] | Ratio [5] | Activity [7] | ΔTm [1] | ΔTm [4] | Selectivity ratio [6] | also measured |
| --- | --- | --- | --- | --- | --- | --- | --- | --- |
| C[n+]1ccc(-c2c3nc(c(-c4cc[n+](C)cc4)c4ccc([nH]4)c(-c4cc[n+](C)cc4)c4ccc([nH]4)c(-c4cc[n+](C)cc4)c4nc2C=C4)C=C3)cc1 | 22.5 °C | 86% | 8% | – | 8 °C | 12 °C | 35% | – |
| c1cc2cc(c1)-c1cccc(c1)CNCCN1CCNCc3cccc(c3)-c3cccc(c3)CNCCN(CCNC2)CCNCc2cccc(c2)-c2cccc(c2)CNCC1 | 17.5 °C | 33% | 109% | Active | 15.9 °C | 16.6 °C | 91% | Activity [8]: Active; Kapp [9]: 4.7 ×10⁴ /M; selectivity ratio [10]: 2; K [11]: inactive; Kapp [12]: 6 ×10⁶ /M; CC50 [13]: 1300 nM; Activity [14]: Active; Selectivity ratio [15]: > 2; K [16]: 7.5 ×10³ /M; Selectivity ratio [17]: > 2; K [18]: 3.9 ×10⁶ /M; selectivity ratio [19]: 2; CC50 [20]: 100 nM; CC50 at 72 h [21]: 2600 nM |
| COCCOCCOCC[n+]1ccc(-c2c3nc(c(-c4cc[n+](CCOCCOCCOC)cc4)c4ccc([nH]4)c(-c4cc[n+](CCOCCOCCOC)cc4)c4nc(c(-c5cc[n+](CCOCCOCCOC)cc5)c5ccc2[nH]5)C=C4)C=C3)cc1 | 11 °C | 72% | 27% | – | 4 °C | 7 °C | 36% | – |
| c1cc2nc3ccc4cc3cc2cc1CNCCOCCNCc1ccc2nc3ccc(cc3cc2c1)CNCCOCCNC4 | 23 °C | 54% | 27% | – | 17.1 °C | 20.4 °C | 84% | Kapp [9]: 3.8 ×10⁵ /M; K [11]: 3.1 ×10⁴ /M; Kapp [12]: 1.4 ×10⁷ /M; CC50 [13]: 2800 nM; Selectivity ratio [15]: > 4; Selectivity ratio [17]: > 1; K [18]: 1.9 ×10⁹ /M; CC50 [20]: 4800 nM; CC50 at 72 h [21]: 1000 nM |
| c1cc2c3cccc(c3c1)CNCCOCCNCc1cccc3c(cccc13)CNCCOCCNC2 | 10.4 °C | 42% | 118% | Active | 8.5 °C | 8.9 °C | 82% | Kapp [9]: 5.9 ×10⁵ /M; K [11]: 7.5 ×10⁴ /M; Kapp [12]: 8.7 ×10⁶ /M; CC50 [13]: 160 nM; Selectivity ratio [15]: > 2; Selectivity ratio [17]: > 1; K [18]: 4.7 ×10⁷ /M; CC50 [20]: 1300 nM; CC50 at 72 h [21]: 40 nM |

Further lines, with some results ahead:

| ΔTm [2] | Ratio [3] | Ratio [5] | Activity [7] | Structure (SMILES) | ΔTm [1] | ΔTm [4] | Selectivity ratio [6] | also measured |
| --- | --- | --- | --- | --- | --- | --- | --- | --- |
| 11.6 °C | 35% | 80% | – | c1cc2c3nc4c(cccc4cc3c1)CNCCOCCNCc1cccc3cc4cccc(c4nc13)CNCCOCCNC2 | 4.6 °C | 5.5 °C | 39% | – |
| 0 °C | 23% | 100% | inactive | c1cc2ccc3ccc(-[n+]4csc5ccccc54)c4ccc(c1)c2c34 | – | – | – | – |
| 0.6 °C | 27% | 100% | inactive | CN(C)CCCNCC12c3ccccc3C(CNCCCN(C)C)(c3ccccc31)c1ccccc12 | – | – | – | – |
| 4.2 °C | 46% | 37% | Active | c1cc2ccc3cc2cc1CNCCNCCNCc1ccc2ccc(cc2c1)CNCCNCCNC3 | – | < 5 °C | – | – |
| 0.8 °C | 63% | 40% | inactive | NCCCNC[C@]12c3ccccc3[C@](CNCCCN)(c3ccccc31)c1cc3ccccc3cc12 | – | – | – | – |
| 1.5 °C | 22% | 101% | inactive | Cn1c[n+](-c2ccc3ccc4cccc5ccc2c3c45)cn1 | – | – | – | – |
